From patent publication US6436955B1, “Crystal modification A of 8-cyano-1-cyclopropyl-7-(is,6s-2,8-diazabicyclo[4.3.0]nonan-8-yl)-6-fluoro-1,4-dihydro-4-oxo-3-quinolinecarboxylic acid” (Bayer Aktiengesellschaft, priority 1998, dated 2002)

Assay: Water absorption from the atmosphere at 95% relative atmospheric humidity
Assay type: physicochemical
Settings: relative atmospheric humidity of 95% (saturated solution of Na2HPO4×12 H2O with sediment in water); within one day
Text: At a relative atmospheric humidity of 95% (established using a saturated solution of Na2HPO4×12 H2O with sediment in water), the solid obtained according to this procedure absorbs approximately 17% by weight of water within one day.
At a relative atmospheric humidity of 95% (established using a saturated solution of Na2HPO4×12 H2O with sediment in water), the solid obtained according to this procedure absorbs approximately 3% by weight of water within one day.

SMILES | water absorbed by the solid
N#Cc1c(N2C[C@@H]3CCCN[C@@H]3C2)c(F)cc2c(=O)c(C(=O)O)cn(C3CC3)c12 [Example 1, 8-cyano-1-cyclopropyl-7-(1S,6S-2,8-diazabicyclo[4.3.0]nonan-8-yl)-6-fluoro-1,4-dihydro-4-oxo-3-quinolinecarboxylic acid] | approximately 3 % by weight
N#Cc1c(N2C[C@@H]3CCCN[C@@H]3C2)c(F)cc2c(=O)c(C(=O)O)cn(C3CC3)c12 [Comparative Example, 8-cyano-1-cyclopropyl-7-(1S,6S-2,8-diazabicyclo[4.3.0]nonan-8-yl)-6-fluoro-1,4-dihydro-4-oxo-3-quinolinecarboxylic acid] | approximately 17 % by weight
